# Laboratory results from article PMC8920630 (Evidence-based Complementary and Alternative Medicine : eCAM, 2022).
# Like-named read-outs stand apart in the source and are kept apart here.
# Legend:
# [1] = PAMPA-BBB, prediction of CNS permeability; settings: for Prediction of CNS penetration: class from experimental Pe, limits of Di et al., 2003
# [2] = system: primary porcine brain endothelial cells (PBECs); settings: cited from earlier work
# [3] = parameters: method as in PMID 27992940; settings: cited from earlier work
# in vitro = settings: PAMPA
Compound,"PAMPA-BBB (Pe) Experimental permeability ([1]; PBS: DMSO (95 : 5), 18 h, mean ± SEM)",Prediction of CNS penetration [1],BBB permeability in in vitro BBB model ([2]; primary porcine brain endothelial cells (PBECs)),Apparent oral bioavailability [3],BBB permeability in in vitro BBB model [2],Papp at 18 h (in vitro) [nm/s],Papp (in vitro) [nm/s]
Madecassoside,0.26 ± 0.7 10^−6 cm s^−1,"CNS− (CNS−, low BBB permeation predicted; Pe, 10–6 cm s^−1 < 2.0)",highly BBB permeable,less than 1%,,,
CCn1cc(C(=O)O)c(=O)c2cc(F)c(N3CCNCC3)nc21 [Enoxacin],,"CNS− (CNS−, low BBB permeation predicted; Pe, 10–6 cm s^−1 < 2.0)",,,,,
C[C@H]1[C@H](C)CC[C@]2(C(=O)O)CC[C@]3(C)C(=CC[C@@H]4[C@@]5(C)C[C@@H](O)[C@H](O)[C@@](C)(CO)[C@@H]5CC[C@]43C)[C@H]12 [Asiatic acid],,"CNS− (CNS−, low BBB permeation predicted; Pe, 10–6 cm s^−1 < 2.0)",,,highly BBB permeable,3 ± 3,
C[C@H]1[C@H](C)CC[C@]2(C(=O)O)CC[C@]3(C)C(=CC[C@@H]4[C@@]5(C)C[C@@H](O)[C@H](O)[C@@](C)(CO)[C@@H]5[C@H](O)C[C@]43C)[C@H]12 [Madecassic acid],,"CNS− (CNS−, low BBB permeation predicted; Pe, 10–6 cm s^−1 < 2.0)",,,,,2.7 ± 3
